Test results as given in patent US8710232B2, “Imidazole derivatives used as TAFIa inhibitors” (Sanofi-Aventis Deutschland GmbH, priority 2004, dated 2014).

target: TAFIa (Homo sapiens (Human), UniProt Q96IY4); experiment: TAFIa enzyme assay (Actichrome plasma TAFI activity kit); format: biochemical; conditions: 15 min preincubation at room temperature, read at 420 nm, duplicate determination
Experimental: The prepared substances were tested for TAFIa inhibition using the Actichrome plasma TAFI activity kit from American Diagnostica (Pr. No. 874). This entailed adding 29 μl of assay buffer (20 mM Hepes, 150 mM NaCl, pH 7.4) and 10 μl of TAFIa (American Diagnostica Pr. No. 874TAFIA; […]) to 1 μl of 5 mM DMSO solution of the substance and incubating in a 96 half-well microtiter plate at room temperature for 15 minutes. The enzymic reaction was started by adding 10 μl of TAFIa developer (prediluted 1:2 with water). The time course of the reaction was followed at 420 nm in a microtiter plate reader (SpectraMax plus 384; Molecular Devices) for 15 minutes. The IC50 was calculated from the averaged values (duplicate determination) of serial dilutions of the substance with the aid of the Grafit 4 software (Erithacus Software, UK).

Sequence of TAFIa (Q96IY4 115-423): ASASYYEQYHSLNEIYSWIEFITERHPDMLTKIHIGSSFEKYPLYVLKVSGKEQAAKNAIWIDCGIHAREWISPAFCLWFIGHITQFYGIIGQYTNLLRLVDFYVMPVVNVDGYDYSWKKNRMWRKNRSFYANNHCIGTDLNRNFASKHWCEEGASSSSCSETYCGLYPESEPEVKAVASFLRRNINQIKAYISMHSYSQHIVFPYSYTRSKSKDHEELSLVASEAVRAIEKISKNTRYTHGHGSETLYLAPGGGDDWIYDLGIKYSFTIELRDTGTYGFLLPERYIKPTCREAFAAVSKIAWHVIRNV

Row | Structure (SMILES) | IC50
1 | Nc1ccc(CC(C(=O)O)c2cn(Cc3csc4ccc(Cl)cc34)cn2)cn1 (stereo not drawn) [Example 27, 3-(6-Aminopyridin-3-yl)-2-[1-(5-chlorobenzo[b]thiophen-3-ylmethyl)-1H-imidazol-4-yl]-propionic acid] | 1110 nM
2 | Nc1ccc(CC(C(=O)O)c2cn(C3CCCC3)cn2)cn1 (stereo not drawn) [Example 7, 3-(6-Aminopyridin-3-yl)-2-(1-cyclopentyl-1H-imidazol-4-yl)propionic acid] | 16 nM
3 | Nc1ccc(CC(C(=O)O)c2cn(Cc3ccc(OC(F)(F)F)cc3)cn2)cn1 (stereo not drawn) [Example 25, 3-(6-Aminopyridin-3-yl)-2-[1-(4-trifluoromethoxybenzyl)-1H-imidazol-4-yl]propionic acid] | 10500 nM
4 | Cc1ccc(S(=O)(=O)Nc2ccc(-n3cnc(C(Cc4ccc(N)nc4)C(=O)O)c3)cc2)cc1 (stereo not drawn) [Example 38] | 50 nM
5 | C#CCn1cnc(C(Cc2ccc(N)nc2)C(=O)O)c1 (stereo not drawn) [Example 31, 3-(6-Aminopyridin-3-yl)-2-(1-prop-2-ynyl-1H-imidazol-4-yl)propionic acid] | 870 nM
6 | Nc1ccc(CC(C(=O)O)c2cn(-c3ccc(NC(=O)Nc4ccccc4)cc3)cn2)cn1 (stereo not drawn) [Example 12, 3-(6-Aminopyridin-3-yl)-2-{1-[4-(3-phenylureido)phenyl]-1H-imidazol-4-yl}propionic acid] | 15 nM
7 | Nc1ccc(CC(C(=O)O)c2cn(Cc3cccc(Oc4ccc(F)cc4)c3)cn2)cn1 (stereo not drawn) [Example 28, 3-(6-Aminopyridin-3-yl)-2-{1-[3-(4-fluorophenoxy)benzyl]-1H-imidazol-4-yl}propionic acid] | 1440 nM
8 | Nc1ccc(CC(C(=O)O)c2cn(C3CCCCC3)cn2)cn1 (stereo not drawn) [Example 1, 3-(6-Aminopyridin-3-yl)-2-(1-cyclohexyl-1H-imidazol-4-yl)propionic acid] | 30 nM
9 | Nc1ccc(CC(C(=O)O)c2cn(CCC3CCCN(C(=O)CCc4ccccc4)C3)cn2)cn1 (stereo not drawn) [Example 16, 3-(6-Aminopyridin-3-yl)-2-(1-{2-[1-(3-phenylpropionyl)piperidin-3-yl]ethyl}-1H-imidazol-4-yl)propionic acid] | 38 nM
10 | Nc1ccc(CC(C(=O)O)c2cn(C3CCNCC3)cn2)cn1 (stereo not drawn) [Example 8, 3-(6-Aminopyridin-3-yl)-2-(1-piperidin-4-yl-1H-imidazol-4-yl)propionic acid] | 1130 nM
11 | CCCNC(=O)Nc1ccc(-n2cnc(C(Cc3ccc(N)nc3)C(=O)O)c2)cc1 (stereo not drawn) [Example 37, 3-(6-Aminopyridin-3-yl)-2-{1-[4-(3-propylureido)phenyl]-1H-imidazol-4-yl}propionic acid] | 49 nM
12 | Nc1ccc(CC(C(=O)O)c2cn(CC3CCCCN3C(=O)c3ccccc3)cn2)cn1 (stereo not drawn) [Example 15, 3-(6-Aminopyridin-3-yl)-2-[1-(1-benzoylpiperidin-2-ylmethyl)-1H-imidazol-4-yl]propionic acid] | 12 nM
13 | Nc1ccc(CC(C(=O)O)c2cn(CC(=O)NC(c3ccccc3)c3ccccc3)cn2)cn1 (stereo not drawn) [Example 10, 3-(6-Aminopyridin-3-yl)-2-{1-[(benzhydrylcarbamoyl)methyl]-1H-imidazol-4-yl}-propionic acid] | 23 nM
14 | Nc1ccc(CC(C(=O)O)c2cn(CCC3CCN(C(=O)C(c4ccccc4)c4ccccc4)CC3)cn2)cn1 (stereo not drawn) [Example 13, 3-(6-Aminopyridin-3-yl)-2-{1-[2-(1-diphenylacetylpiperidin-4-yl)ethyl]-1H-imidazol-4-yl}-propionic acid] | 12 nM
15 | CC1(C)CCC(n2cnc(C(Cc3ccc(N)nc3)C(=O)O)c2)CC1 (stereo not drawn) [Example 33, 3-(6-Aminopyridin-3-yl)-2-[1-(4,4-dimethylcyclohexyl)-1H-imidazol-4-yl]propionic acid] | 3 nM
16 | Nc1ccc(CC(C(=O)O)c2cn(C3CCN(c4ccccc4)C3=O)cn2)cn1 (stereo not drawn) [Example 9, 3-(6-Aminopyridin-3-yl)-2-[1-(2-oxo-1-phenylpyrrolidin-3-yl)-1H-imidazol-4-yl]propionic acid] | 439 nM
17 | Nc1ccc(CC(C(=O)O)c2cn(CC3CCCN(C(=O)C(c4ccccc4)c4ccccc4)C3)cn2)cn1 (stereo not drawn) [Example 17, 3-(6-Aminopyridin-3-yl)-2-[1-(1-diphenylacetylpiperidin-3-ylmethyl)-1H-imidazol-4-yl]-propionic acid] | 11 nM
18 | Nc1ccc(CC(C(=O)O)c2cn(CCC3CCN(C(=O)CCc4ccccc4)CC3)cn2)cn1 (stereo not drawn) [Example 18, 3-(6-Aminopyridin-3-yl)-2-(1-{2-[1-(3-phenylpropionyl)piperidin-4-yl]ethyl}1H-imidazol-4-yl)propionic acid] | 21 nM
